Reference: PMC5516028, “Molecular tools for GABAA receptors: High affinity ligands for β1-containing subtypes” (Scientific Reports, 2017)

Legend:
Type in all cases: cell-based
[1] = molecular target: T1, α1β3γ2 GABAA receptors (Rattus norvegicus, UniProt P62813+P63079); assay: Two electrode voltage clamp in Xenopus laevis oocytes, α1β3γ2
T1 construct: expressed in transfected cells; host or cells: Xenopus laevis oocytes, mRNA injected
Source text: (§1) cDNA’s of rat GABAA receptor subunits α1, α4, β1, β2, β3 and γ2S were cloned as described. cDNAs of the rat subunits α2, α3 and α5 were gifts from P. Malherbe, that of α6 and γ1 were gifts of P. Seeburg and that of δ was a gift of C. Czajkowski. The mutants were constructed using the Q5 Site-Directed Mutagenesis Kit (New England Biolabs) following manufacturer’s instruction. We used the wild-type rat β3-pCI vector as template and the primers […] and […] resulting in a substitution of amino acid N41 (AAC) to R (AGG). We used the wild-type rat β1-pCI vector as template and the primers […] and […] resulting in a substitution of amino acid R41 (CGG) to N (AAC). The mutated subunits were confirmed by sequencing.
(§2) In vitro transcription of mRNA was based on the cDNA expression vectors encoding for rat GABAA receptor subunits α1–6, β1-3, γ1,2, δ and the two β mutants (β1R41N and β3N41R)[40]. After linearizing the cDNA vectors with appropriate restriction endonucleases, the cDNA was purified and concentrated with the DNA Clean and Contentrator ^TM Kit (Zymoresearch, Catalog No. D4005). Capped transcripts of the purified cDNA were produced using the mMESSAGE mMACHINE® T7 transcription kit (Ambion, TX, USA) and polyadenylated using the Ambion PolyA tailing kit (Ambion). After transcription and polyadenylation the RNA was purified with the MEGAclear ^TM Kit (Ambion, Catalog No. AM1908). The final RNA concentration was measured on NanoDrop® ND-1000 and finally diluted and stored in diethylpyrocarbonate-treated water at −80 °C. For the microinjection, the RNA of αβ receptor combinations was mixed at 1:1 ratio (which leads to αβ receptors that consist of predominantly 3 beta and 2 alpha subunits[27]), for αkβlγm (k = 1–3, l = 1, 3, m = 1, 2) receptors at 1:1:5 ratio, for αkβ3γ2 (k = 4–6) and αkβlδ (k = 1, 4 and 6, l = 1, 3) receptor combinations at 3:1:5 ratio.
(§3) Mature female Xenopus laevis (Nasco, WI) were anesthetized in a bath of ice-cold 0.17% Tricain (Ethyl-m-aminobenzoate, Sigma, MO) before decapitation in full accordance with all rules of the Austrian animal protection law (see http://www.ris.bka.gv.at/Dokumente/BgblAuth/BGBLA_2012_I_114/BGBLA_2012_I_114.pdf) and the Austrian animal experiment by-laws (see https://www.ris.bka.gv.at/Dokumente/BgblAuth/BGBLA_2012_II_522/BGBLA_2012_II_522.pdf) which implement the European Directive 2010/63/EU (see http://eur-lex.europa.eu/LexUriServ/LexUriServ.do?uri=OJ:L:2010:276:0033:0079:en:PDF) into the Austrian law (all information accessed on July 27, 2016). The frog’s ovaries were transferred to ND96 medium (96 mM NaCl, 2 mM KCl, 1 mM MgCl2, 5 mM HEPES; pH 7.5). Stage 5–6 oocytes with the follicle cell layer around them were roughly dissected with forceps into packages of 10–15 cells and washed in Ca^2+-free ND96 medium. Cells were then digested with collagenase (type IA, Sigma, NO, 1 mg/mL ND96) at 18 °C shaking at 30 rpm for 30–60 minutes and gently defolliculated with the aid of a glass pipette with appropriate tip diameter and a platinum loop. Defolliculated cells were stored at 18 °C for at least 6 hours in ND96 solution containing penicillin G (10000 IU/100 mL) and streptomycin (10 mg/100 mL) in order to preselect and exclude damaged cells from further treatment. Healthy defolliculated oocytes were injected with an aqueous solution of mRNA. A total of 4.5 ng of mRNA per oocyte was injected with a Nanoject II (Drummond). After injection of mRNA, oocytes were incubated at 18 °C (ND96 + antibiotic) for 2–3 days for αβ receptors and for 3–4 days for αβγ or αβδ receptors before recording. When cells were measured at later time points, oocytes were stored at +4 °C instead of 18 °C.
(§4) For electrophysiological recordings, oocytes were placed on a nylon-grid in a bath of Ca^2+-containing NDE solution medium [96 mM NaCl, 5 mM HEPES-NaOH (pH 7.5), 2 mM KCl, 1 mM MgCl2, 1.8 mM CaCl2].

[2] = molecular target: T2, α6β3γ2 GABAA receptors (Rattus norvegicus, UniProt P30191+P63079); assay: Two electrode voltage clamp in Xenopus laevis oocytes, α6β3γ2
T2 construct: expressed in transfected cells; host or cells: Xenopus laevis oocytes, mRNA injected
T2 sequence (P30191 20-453): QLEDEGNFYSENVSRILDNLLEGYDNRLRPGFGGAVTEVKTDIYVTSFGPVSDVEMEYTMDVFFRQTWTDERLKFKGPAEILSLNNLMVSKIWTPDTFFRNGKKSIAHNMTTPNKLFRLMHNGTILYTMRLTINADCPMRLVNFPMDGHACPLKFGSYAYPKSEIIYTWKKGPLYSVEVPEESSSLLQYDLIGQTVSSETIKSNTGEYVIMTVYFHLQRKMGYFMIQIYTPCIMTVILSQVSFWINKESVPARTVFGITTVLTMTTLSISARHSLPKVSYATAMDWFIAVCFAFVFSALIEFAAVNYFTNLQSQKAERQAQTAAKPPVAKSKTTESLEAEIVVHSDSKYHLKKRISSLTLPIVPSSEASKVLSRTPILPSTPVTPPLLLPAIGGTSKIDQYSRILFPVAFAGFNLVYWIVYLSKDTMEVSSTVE
T2 sequence (P63079 26-473): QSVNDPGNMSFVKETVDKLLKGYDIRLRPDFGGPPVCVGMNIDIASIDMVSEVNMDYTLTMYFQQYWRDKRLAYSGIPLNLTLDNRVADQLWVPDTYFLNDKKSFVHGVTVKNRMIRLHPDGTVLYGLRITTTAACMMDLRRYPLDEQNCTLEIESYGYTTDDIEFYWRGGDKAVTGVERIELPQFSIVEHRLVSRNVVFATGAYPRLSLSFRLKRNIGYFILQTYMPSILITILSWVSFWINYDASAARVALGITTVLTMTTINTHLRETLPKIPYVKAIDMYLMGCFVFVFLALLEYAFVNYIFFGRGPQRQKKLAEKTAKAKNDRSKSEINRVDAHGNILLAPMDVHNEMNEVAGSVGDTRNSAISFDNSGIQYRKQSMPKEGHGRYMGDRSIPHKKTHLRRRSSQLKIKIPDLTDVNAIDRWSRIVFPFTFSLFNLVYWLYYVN
T2 sequence (P18508 39-466 partner): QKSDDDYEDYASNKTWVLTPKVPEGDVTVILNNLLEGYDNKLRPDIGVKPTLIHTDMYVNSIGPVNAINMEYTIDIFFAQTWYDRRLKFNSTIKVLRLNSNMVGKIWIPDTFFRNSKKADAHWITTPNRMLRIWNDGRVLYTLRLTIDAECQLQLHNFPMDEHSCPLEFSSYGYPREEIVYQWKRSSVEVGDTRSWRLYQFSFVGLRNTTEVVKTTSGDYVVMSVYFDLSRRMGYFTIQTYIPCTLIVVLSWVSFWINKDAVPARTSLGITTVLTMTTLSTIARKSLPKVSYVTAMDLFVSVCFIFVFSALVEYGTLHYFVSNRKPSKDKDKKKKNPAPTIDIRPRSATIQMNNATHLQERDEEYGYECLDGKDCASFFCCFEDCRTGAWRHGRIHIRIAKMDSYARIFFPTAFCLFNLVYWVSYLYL
Source text: as §1, §2, §3, §4

[3] = molecular target: T3, α2β3 GABAA receptors (Rattus norvegicus, UniProt P23576+P63079); assay: Two electrode voltage clamp in Xenopus laevis oocytes, α2β3; settings: α2β3
T3 construct: expressed in transfected cells; host or cells: Xenopus laevis oocytes, mRNA injected
T3 sequence (P23576 29-451): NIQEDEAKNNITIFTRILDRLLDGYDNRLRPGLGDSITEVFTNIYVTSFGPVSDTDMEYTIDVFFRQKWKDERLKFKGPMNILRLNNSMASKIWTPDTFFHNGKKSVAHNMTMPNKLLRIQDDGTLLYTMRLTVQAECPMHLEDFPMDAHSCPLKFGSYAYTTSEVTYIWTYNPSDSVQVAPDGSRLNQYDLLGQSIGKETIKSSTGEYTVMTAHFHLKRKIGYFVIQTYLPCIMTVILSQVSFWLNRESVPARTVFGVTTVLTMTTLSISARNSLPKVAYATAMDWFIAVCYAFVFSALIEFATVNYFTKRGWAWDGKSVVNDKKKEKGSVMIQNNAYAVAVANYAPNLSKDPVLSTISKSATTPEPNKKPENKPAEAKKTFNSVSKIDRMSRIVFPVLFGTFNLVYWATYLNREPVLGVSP
T3 sequence (P63079 26-473): as the sequence (P63079 26-473) above
Source text: as §1, §2, §3, §4

[4] = molecular target: T4, α5β3γ2 GABAA receptors (Rattus norvegicus, UniProt P19969+P63079); assay: Two electrode voltage clamp in Xenopus laevis oocytes, α5β3γ2
T4 construct: expressed in transfected cells; host or cells: Xenopus laevis oocytes, mRNA injected
T4 sequence (P19969 32-464 limits assumed): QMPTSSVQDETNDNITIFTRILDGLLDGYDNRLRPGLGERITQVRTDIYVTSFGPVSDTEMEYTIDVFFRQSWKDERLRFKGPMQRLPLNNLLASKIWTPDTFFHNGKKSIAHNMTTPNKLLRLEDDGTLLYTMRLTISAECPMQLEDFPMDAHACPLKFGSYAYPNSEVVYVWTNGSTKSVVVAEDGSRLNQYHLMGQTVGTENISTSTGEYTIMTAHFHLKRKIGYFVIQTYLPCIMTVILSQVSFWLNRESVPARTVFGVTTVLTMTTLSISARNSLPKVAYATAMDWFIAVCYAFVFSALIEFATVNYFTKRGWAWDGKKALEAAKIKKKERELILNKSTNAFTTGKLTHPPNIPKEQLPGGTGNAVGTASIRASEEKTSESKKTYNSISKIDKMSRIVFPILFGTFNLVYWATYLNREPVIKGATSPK
T4 sequence (P63079 26-473): as the sequence (P63079 26-473) above
T4 sequence (P18508 39-466 partner): as the sequence (P18508 39-466 partner) above
Source text: as §1, §2, §3, §4

[5] = molecular target: T5, α2β3γ2 GABAA receptors (Rattus norvegicus, UniProt P23576+P63079); assay: Two electrode voltage clamp in Xenopus laevis oocytes, α2β3γ2
T5 construct: expressed in transfected cells; host or cells: Xenopus laevis oocytes, mRNA injected
T5 sequence (P23576 29-451): as the sequence (P23576 29-451) above
T5 sequence (P63079 26-473): as the sequence (P63079 26-473) above
T5 sequence (P18508 39-466 partner): as the sequence (P18508 39-466 partner) above
Source text: as §1, §2, §3, §4

[6] = molecular target: T6, α3β3γ2 GABAA receptors (Rattus norvegicus, UniProt P20236+P63079); assay: Two electrode voltage clamp in Xenopus laevis oocytes, α3β3γ2
T6 construct: expressed in transfected cells; host or cells: Xenopus laevis oocytes, mRNA injected
T6 sequence (P20236 29-493): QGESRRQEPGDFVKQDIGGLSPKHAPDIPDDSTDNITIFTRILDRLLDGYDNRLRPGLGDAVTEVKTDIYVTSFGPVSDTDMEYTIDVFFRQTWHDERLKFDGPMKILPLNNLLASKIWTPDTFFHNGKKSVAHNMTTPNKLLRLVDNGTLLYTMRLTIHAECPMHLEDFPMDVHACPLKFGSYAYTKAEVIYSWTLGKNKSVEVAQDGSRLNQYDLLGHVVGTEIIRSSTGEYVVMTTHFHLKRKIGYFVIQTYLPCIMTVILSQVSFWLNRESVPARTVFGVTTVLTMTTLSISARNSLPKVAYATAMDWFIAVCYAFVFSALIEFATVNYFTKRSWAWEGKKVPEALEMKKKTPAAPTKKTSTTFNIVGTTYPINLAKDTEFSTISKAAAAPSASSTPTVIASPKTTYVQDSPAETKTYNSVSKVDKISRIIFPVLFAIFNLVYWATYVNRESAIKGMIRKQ
T6 sequence (P63079 26-473): as the sequence (P63079 26-473) above
T6 sequence (P18508 39-466 partner): as the sequence (P18508 39-466 partner) above
Source text: as §1, §2, §3, §4

[7] = molecular target: T7, α3β3 GABAA receptors (Rattus norvegicus, UniProt P20236+P63079); assay: Two electrode voltage clamp in Xenopus laevis oocytes, α3β3
T7 construct: expressed in transfected cells; host or cells: Xenopus laevis oocytes, mRNA injected
T7 sequence (P20236 29-493): as the sequence (P20236 29-493) above
T7 sequence (P63079 26-473): as the sequence (P63079 26-473) above
Source text: as §1, §2, §3, §4

[8] = read-out: efficacy, % of control current (GABA EC3-5 = 100%), 1 nM
[9] = read-out: efficacy, % of control current (GABA EC3-5 = 100%), 10 nM
[10] = read-out: efficacy, % of control current (GABA EC3-5 = 100%), 100 nM
[11] = read-out: efficacy, % of control current (GABA EC3-5 = 100%), 300 nM
[12] = read-out: efficacy, % of control current (GABA EC3-5 = 100%), 1 µM
[13] = read-out: efficacy, % of control current (GABA EC3-5 = 100%), 10 µM

T1 sequence (P62813 28-455): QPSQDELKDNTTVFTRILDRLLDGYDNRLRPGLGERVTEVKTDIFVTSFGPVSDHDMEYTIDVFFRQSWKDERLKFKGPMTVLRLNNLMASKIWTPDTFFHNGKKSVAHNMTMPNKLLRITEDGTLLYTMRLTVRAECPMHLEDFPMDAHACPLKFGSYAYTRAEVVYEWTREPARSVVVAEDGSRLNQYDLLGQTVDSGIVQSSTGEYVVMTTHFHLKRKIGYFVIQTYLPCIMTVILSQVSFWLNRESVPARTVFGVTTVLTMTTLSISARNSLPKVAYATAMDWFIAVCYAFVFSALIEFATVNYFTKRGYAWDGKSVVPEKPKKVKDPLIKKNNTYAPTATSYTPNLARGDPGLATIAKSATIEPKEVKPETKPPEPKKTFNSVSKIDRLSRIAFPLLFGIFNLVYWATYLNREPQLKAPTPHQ
T1 sequence (P63079 26-473): as the sequence (P63079 26-473) above
T1 sequence (P18508 39-466 partner): as the sequence (P18508 39-466 partner) above

Cc1ccc(-n2nc3c4cc(Cl)ccc4[nH]cc-3c2=O)cc1 [Compound 2, 8-Chloro-2-(4-methylphenyl)-2H-pyrazolo[4,3-c]quinolin-3(5H)-one]
EC50 ([1]; co-applied with GABA EC3-5, read-out: EC50): 4.4 µM
activity at 0.001 µM [1, 8]: 100%
activity at 0.01 µM [1, 9]: 108 ± 4%
activity at 0.1 µM [1, 10]: 108 ± 4%
activity at 0.3 µM [1, 11]: 128 ± 5.6%
activity at 1 µM [1, 12]: 156 ± 19%
activity at 10 µM [1, 13]: 423 ± 106%
activity at 30 µM ([1]; read-out: efficacy, % of control current (GABA EC3-5 = 100%), 30 µM): 534 ± 136%
Emax ([1]; read-out: maximum efficacy / modulatory effects up to): ~600%
EC50 ([2]; co-applied with GABA EC3-5): > 5 µM
activity at 0.001 µM [2, 8]: 106 ± 6.6%
activity at 0.01 µM [2, 9]: 114 ± 8.8%
activity at 0.1 µM [2, 10]: 152 ± 12%
activity at 1 µM [2, 12]: 297 ± 16.2%
activity at 10 µM [2, 13]: > 1000%
activity at 0.001 µM [3, 8]: 100%
activity at 0.01 µM [3, 9]: 100%
activity at 0.3 µM [3, 11]: 123 ± 4.9%
activity at 1 µM [3, 12]: 127 ± 9.8%
activity at 3 µM ([3]; read-out: efficacy, % of control current (GABA EC3-5 = 100%), 3 µM): 254 ± 4%
EC50 ([3]; log of EC50, sign as printed, read-out: LogEC50 (converted)): 15.8 µM
EC50 [4]: 6.4 µM
activity at 0.001 µM ([4]; read-out: efficacy, % of control current (GABA EC3-5 = 100%), α5β3γ2, 1 nM): 93.3 ± 5.7%
activity at 0.01 µM ([4]; read-out: efficacy, % of control current (GABA EC3-5 = 100%), α5β3γ2, 10 nM): 95.1 ± 6.9%
activity at 0.1 µM ([4]; read-out: efficacy, % of control current (GABA EC3-5 = 100%), α5β3γ2, 100 nM): 97.7 ± 11.5%
activity at 0.3 µM ([4]; read-out: efficacy, % of control current (GABA EC3-5 = 100%), α5β3γ2, 300 nM): 103 ± 14.9%
activity at 1 µM ([4]; read-out: efficacy, % of control current (GABA EC3-5 = 100%), α5β3γ2, 1 µM): 123 ± 16.5%
activity at 10 µM ([4]; read-out: efficacy, % of control current (GABA EC3-5 = 100%), α5β3γ2, 10 µM): 220 ± 31.1%
activity at 30 µM ([4]; read-out: efficacy, % of control current (GABA EC3-5 = 100%), α5β3γ2, 30 µM): 266 ± 41%
Emax ([4]; α5-containing subtype (α5β3γ2), read-out: maximum efficacy): ~200%
EC50 [5]: 5.5 µM
activity at 0.001 µM ([5]; read-out: efficacy, % of control current (GABA EC3-5 = 100%), α2β3γ2, 1 nM): 100%
activity at 0.01 µM ([5]; read-out: efficacy, % of control current (GABA EC3-5 = 100%), α2β3γ2, 10 nM): 108 ± 4.2%
activity at 0.1 µM ([5]; read-out: efficacy, % of control current (GABA EC3-5 = 100%), α2β3γ2, 100 nM): 111 ± 2.3%
activity at 0.3 µM ([5]; read-out: efficacy, % of control current (GABA EC3-5 = 100%), α2β3γ2, 300 nM): 134%
activity at 1 µM ([5]; read-out: efficacy, % of control current (GABA EC3-5 = 100%), α2β3γ2, 1 µM): 137 ± 5.5%
activity at 10 µM ([5]; read-out: efficacy, % of control current (GABA EC3-5 = 100%), α2β3γ2, 10 µM): 470 ± 50%
activity at 30 µM ([5]; read-out: efficacy, % of control current (GABA EC3-5 = 100%), α2β3γ2, 30 µM): 580%
EC50 ([6]; co-applied with GABA EC3-5): 7.2 µM
activity at 0.001 µM [6, 8]: 100%
activity at 0.1 µM [6, 10]: 109 ± 1%
activity at 10 µM [6, 13]: 305 ± 71%
EC50 [7]: 2100 nM
activity at 0.001 µM ([7]; read-out: efficacy, % of control current (GABA EC3-5 = 100%), α3β3, 1 nM): 101.2 ± 0.8%
activity at 0.01 µM ([7]; read-out: efficacy, % of control current (GABA EC3-5 = 100%), α3β3, 10 nM): 102 ± 1.2%
activity at 0.1 µM ([7]; read-out: efficacy, % of control current (GABA EC3-5 = 100%), α3β3, 100 nM): 106 ± 1.3%
activity at 3 µM ([7]; read-out: efficacy, % of control current (GABA EC3-5 = 100%), α3β3, 3 µM): 226 ± 10.7%
activity at 10 µM ([7]; read-out: efficacy, % of control current (GABA EC3-5 = 100%), α3β3, 10 µM): 285 ± 7%
activity at 30 µM ([7]; read-out: efficacy, % of control current (GABA EC3-5 = 100%), α3β3, 30 µM): 288 ± 8.7%
